This is an account of results in patent US9487529B2, “Macrocyclic compounds as ALK, FAK and JAK2 inhibitors” (Cephalon, Inc., priority 2011, dated 2016).

For series [1] the following is noted: cc_pd bond, Pd(OAc)2 / tri-o-tolylphosphine, Et3N, CH3CN, 120.0 °C.
Series [2] concerns the target T1, human insulin receptor cytoplasmic domain (βIRCD) (Homo sapiens, UniProt P06213).
T1 construct: human insulin receptor cytoplasmic domain (βIRCD); host or cells: baculovirus expression system
As to the kind of experiment: Insulin Receptor Kinase Assay (TRF). The series is classed as biochemical. To be noted: 20 μM ATP, read-out: IR IC50. On the procedure: Example compounds were tested for their ability to inhibit the kinase activity of baculovirus-expressed human insulin receptor cytoplasmic domain (βIRCD) using the TRF assay as described above for ALK. Phosphorylation of the substrate, recombinant GST-PLC-γ, was detected with a europium-labeled anti-phosphotyrosine antibody and measured by TRF. Each 96-well plate (Greiner#655074) was coated with 100 μL/well of 20 μg/mL substrate solution in TBS. The IR assay mixture (total volume=100 μL/well) consisting of 20 mM HEPES (pH 7.2), 20 μM ATP, 5 mM MnCl2, 0.1% BSA, and test compound (diluted in DMSO; 2.5% DMSO final in assay) was added to the assay plates. Enzyme (20 ng/mL βIRCD) was added and the reaction was allowed to proceed at room temperature for 20 minutes. Detection of the phosphorylated product was performed by adding 100 μL/well of Eu—N1 labeled PY100 antibody (PerkinElmer#AD0160; diluted 1:10,000 in TBS-T containing 0.25% BSA). Incubation at 37° C. for 1 hour was followed by addition of 50 μL enhancement solution (Wallace#1244-105). Plates were agitated for 10 minutes and the fluorescence was measured using the PerkinElmer EnVision™ 2102 or 2104 multi-label plate reader.
(§1) Data analysis was performed using ActivityBase (IDBS, Guilford, UK). IC50 values were calculated by plotting percent inhibition versus log10 of the concentration of compound and fitting to the nonlinear regression sigmoidal dose-response (variable slope) equation in XLFit (IDBS, Guilford, UK).

The target of series [3] is T2, baculovirus-expressed JAK2 (Homo sapiens, UniProt O60674).
T2 construct: host or cells: baculovirus expression system
T2 sequence (O60674 whole entry): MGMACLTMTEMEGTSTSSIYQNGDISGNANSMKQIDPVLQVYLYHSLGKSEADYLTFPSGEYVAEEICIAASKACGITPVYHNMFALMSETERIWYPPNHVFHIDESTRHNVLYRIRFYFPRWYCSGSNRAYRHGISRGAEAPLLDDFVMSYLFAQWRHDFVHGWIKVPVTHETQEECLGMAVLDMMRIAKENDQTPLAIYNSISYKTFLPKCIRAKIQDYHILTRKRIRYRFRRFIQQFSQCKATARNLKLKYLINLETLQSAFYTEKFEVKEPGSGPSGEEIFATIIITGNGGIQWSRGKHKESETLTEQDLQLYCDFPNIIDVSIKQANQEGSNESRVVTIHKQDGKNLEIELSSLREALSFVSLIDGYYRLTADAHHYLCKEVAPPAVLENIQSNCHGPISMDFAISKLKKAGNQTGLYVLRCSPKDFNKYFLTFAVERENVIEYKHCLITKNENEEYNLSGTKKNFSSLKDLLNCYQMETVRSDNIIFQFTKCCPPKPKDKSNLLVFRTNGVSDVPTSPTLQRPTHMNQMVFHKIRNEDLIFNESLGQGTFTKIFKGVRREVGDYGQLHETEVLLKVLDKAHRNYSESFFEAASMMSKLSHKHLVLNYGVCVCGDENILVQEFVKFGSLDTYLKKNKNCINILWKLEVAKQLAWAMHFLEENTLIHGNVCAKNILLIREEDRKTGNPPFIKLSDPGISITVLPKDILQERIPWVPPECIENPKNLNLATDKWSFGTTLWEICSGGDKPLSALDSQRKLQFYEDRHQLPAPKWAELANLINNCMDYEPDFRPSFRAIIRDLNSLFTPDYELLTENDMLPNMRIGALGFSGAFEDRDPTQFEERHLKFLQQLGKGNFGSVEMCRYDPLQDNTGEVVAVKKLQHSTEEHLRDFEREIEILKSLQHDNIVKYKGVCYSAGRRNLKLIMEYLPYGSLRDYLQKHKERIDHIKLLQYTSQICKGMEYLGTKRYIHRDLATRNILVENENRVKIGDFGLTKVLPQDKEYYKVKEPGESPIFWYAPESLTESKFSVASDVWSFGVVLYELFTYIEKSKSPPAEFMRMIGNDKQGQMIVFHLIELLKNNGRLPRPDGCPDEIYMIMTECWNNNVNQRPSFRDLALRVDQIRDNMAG
As to the kind of experiment: JAK2 Kinase Assay (TRF detection). Conditions: 0.2 μM ATP; average of two or more determinations; class symbols. The series is classed as biochemical. As to the method:
Compounds were tested for their ability to inhibit the kinase activity of baculovirus-expressed JAK2 using the TRF detection system. IC50 runs were conducted in 96-well Costar high binding plates (Corning Costar #3922, Corning, N.Y.). The plates were coated first with 100 μL/well of 10 μg/mL Neutravidin (Pierce #31000, Rockford, Ill.) in TBS at 37° C. for 2 hours, followed by 100 μL/well of 1 μg/mL 15-mer peptide substrate (biotinyl-amino-hexanoyl-EQEDEPEGDYFEWLE-amide, Infinity Biotech Research and Resource, Aston, Pa.) at 37° C. for another hour. The JAK2 assay mixture (total volume=100 μL/well) consisting of 20 mM HEPES, pH 7.2, 0.2 μM ATP, 1 mM MnCl2, 0.1% BSA, and test compound (diluted in DMSO; 2.5% DMSO final in assay) was then added to the assay plate. Enzyme (15 ng/ml JAK2) was added and the reaction was allowed to proceed at room temperature for 20 minutes. Detection of the phosphorylated product was performed by adding 100 μL/well of Eu—N1 labeled PY100 antibody (PerkinElmer Life Sciences #AD0041, Boston, Mass.). Incubation at the room temperature then proceeded for 1 hour, followed by addition of 100 μl enhancement solution (PerkinElmer Life Sciences #1244-105, Boston, Mass.). The plate was gently agitated and after thirty minutes, the fluorescence of the resulting solution was measured using the PerkinElmer EnVision™ 2102 (or 2104) multi-label plate reader.
as §1

Series [4] deals with T3, baculovirus-expressed ALK (Homo sapiens, UniProt Q9UM73).
T3 construct: host or cells: baculovirus expression system
T3 sequence (Q9UM73 19-1620): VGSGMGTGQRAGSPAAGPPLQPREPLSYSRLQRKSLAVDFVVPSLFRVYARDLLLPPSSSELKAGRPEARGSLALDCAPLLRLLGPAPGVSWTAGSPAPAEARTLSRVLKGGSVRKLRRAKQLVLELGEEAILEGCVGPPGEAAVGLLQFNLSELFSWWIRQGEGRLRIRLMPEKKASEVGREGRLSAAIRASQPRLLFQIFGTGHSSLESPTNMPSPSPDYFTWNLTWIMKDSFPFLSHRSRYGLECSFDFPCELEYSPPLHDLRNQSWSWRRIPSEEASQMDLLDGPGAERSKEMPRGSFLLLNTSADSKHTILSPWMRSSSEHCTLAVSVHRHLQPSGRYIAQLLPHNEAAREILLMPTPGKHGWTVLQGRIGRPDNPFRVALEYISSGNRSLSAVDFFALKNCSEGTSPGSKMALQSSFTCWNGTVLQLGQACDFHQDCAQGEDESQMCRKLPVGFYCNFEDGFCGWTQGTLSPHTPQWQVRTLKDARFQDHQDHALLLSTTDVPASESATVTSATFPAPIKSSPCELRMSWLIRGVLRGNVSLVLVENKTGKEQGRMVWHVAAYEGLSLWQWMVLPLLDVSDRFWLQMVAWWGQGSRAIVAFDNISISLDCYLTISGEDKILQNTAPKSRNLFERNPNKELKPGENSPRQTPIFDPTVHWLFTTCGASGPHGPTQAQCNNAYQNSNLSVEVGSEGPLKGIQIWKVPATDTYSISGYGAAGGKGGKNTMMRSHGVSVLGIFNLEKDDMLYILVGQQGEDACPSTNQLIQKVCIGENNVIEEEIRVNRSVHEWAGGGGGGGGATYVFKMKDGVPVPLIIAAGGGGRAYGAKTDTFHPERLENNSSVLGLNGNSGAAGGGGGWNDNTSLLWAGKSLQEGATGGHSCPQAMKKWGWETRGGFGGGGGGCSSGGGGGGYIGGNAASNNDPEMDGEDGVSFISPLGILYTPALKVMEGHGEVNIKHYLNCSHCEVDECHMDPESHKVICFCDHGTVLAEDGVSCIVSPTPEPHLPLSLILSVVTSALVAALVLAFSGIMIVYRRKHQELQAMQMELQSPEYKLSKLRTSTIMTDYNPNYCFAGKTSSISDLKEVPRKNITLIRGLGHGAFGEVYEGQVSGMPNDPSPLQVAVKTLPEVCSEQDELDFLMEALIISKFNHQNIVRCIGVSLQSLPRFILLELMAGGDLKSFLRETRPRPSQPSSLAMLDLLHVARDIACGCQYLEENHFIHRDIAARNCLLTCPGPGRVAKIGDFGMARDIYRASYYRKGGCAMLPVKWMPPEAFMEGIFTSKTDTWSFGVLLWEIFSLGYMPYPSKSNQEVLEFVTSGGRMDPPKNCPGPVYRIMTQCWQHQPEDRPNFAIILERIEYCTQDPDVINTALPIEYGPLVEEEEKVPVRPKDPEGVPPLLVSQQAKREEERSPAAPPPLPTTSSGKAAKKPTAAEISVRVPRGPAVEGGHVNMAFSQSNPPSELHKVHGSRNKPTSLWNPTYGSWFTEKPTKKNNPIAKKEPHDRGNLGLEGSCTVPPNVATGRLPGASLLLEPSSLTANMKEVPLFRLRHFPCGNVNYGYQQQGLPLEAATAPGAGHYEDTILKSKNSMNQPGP
The series can be described thus: ALK Kinase Assay (ELISA/TRF). The class given is biochemical. Conditions: 1 μM ATP (Km level). On the procedure:
Briefly, each 96-well plate was coated with 100 μL/well of 10 μg/mL substrate (GST-PLC-γ) in Tris-buffered saline (TBS). […] The reaction was initiated by adding enzyme (30 ng/mL ALK) and was allowed to proceed at 37° C. for 15 minutes. Detection of the phosphorylated product was performed by adding 100 μL/well of Eu—N1 labeled PT66 antibody (Perkin Elmer #AD0041). […] Data analysis was performed using ActivityBase (IDBS, Guilford, UK). IC50 values were calculated by plotting percent inhibition versus log10 of the concentration of compound and fitting to the nonlinear regression sigmoidal dose-response (variable slope) equation in XLFit (IDBS, Guilford, UK).

For series [5], the target named is T4, recombinant human FAK (Homo sapiens, UniProt Q05397).
T4 construct: purchased Invitrogen PV3832; host or cells: baculovirus expression system
T4 sequence (Q05397 whole entry): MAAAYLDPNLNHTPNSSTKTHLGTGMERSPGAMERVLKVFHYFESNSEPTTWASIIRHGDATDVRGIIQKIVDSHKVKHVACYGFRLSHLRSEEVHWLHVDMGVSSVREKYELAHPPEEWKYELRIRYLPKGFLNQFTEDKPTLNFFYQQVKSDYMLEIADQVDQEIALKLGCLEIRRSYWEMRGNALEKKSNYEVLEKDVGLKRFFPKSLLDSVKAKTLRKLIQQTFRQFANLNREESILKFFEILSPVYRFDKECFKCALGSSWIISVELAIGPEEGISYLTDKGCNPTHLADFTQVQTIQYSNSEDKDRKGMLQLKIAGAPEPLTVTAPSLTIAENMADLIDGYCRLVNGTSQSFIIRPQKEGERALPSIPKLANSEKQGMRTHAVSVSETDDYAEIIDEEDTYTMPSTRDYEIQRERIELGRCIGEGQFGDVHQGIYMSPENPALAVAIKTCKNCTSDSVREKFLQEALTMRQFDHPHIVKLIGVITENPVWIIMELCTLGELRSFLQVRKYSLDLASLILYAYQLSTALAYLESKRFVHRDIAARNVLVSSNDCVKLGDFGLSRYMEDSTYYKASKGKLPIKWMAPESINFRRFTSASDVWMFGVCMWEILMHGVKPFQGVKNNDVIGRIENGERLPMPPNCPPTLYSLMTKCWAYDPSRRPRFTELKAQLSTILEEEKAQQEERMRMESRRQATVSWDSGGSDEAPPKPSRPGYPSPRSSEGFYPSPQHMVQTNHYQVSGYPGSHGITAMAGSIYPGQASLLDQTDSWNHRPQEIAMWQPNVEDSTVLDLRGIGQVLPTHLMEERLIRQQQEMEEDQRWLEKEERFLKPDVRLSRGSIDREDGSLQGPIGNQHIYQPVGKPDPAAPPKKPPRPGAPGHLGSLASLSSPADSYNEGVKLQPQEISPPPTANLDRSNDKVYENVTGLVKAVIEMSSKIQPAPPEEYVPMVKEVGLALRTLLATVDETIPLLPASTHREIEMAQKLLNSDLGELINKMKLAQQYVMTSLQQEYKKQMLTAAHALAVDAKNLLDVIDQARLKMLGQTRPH
As to the kind of experiment: FAK Enzyme Assay (TRF detection). The series is classed as biochemical. Conditions: 10 μM ATP. As to the method: Example compounds were tested for their ability to inhibit the kinase activity of baculovirus-expressed recombinant human FAK using the TRF detection system as described above for JAK2. IC50 runs were performed in 96-well Costar high binding plates (#3922). The plates were coated first with 100 μL/well of 10 μg/mL neutravidin in TBS at 37° C. for 2 h, followed by 100 μL/well of 1 μg/mL 15-mer peptide substrate (biotinyl-amino-hexanoyl-EQEDEPEGDYFEWLE-amide) at 37° C. for another hour. The FAK assay mixture (total volume=100 μL/well) consisting of 20 mM HEPES, pH 7.2, 10 μM ATP, 5 mM MgCl2, 0.5 mM DTT, 0.1% BSA, and test compound (diluted in DMSO; 2.5% DMSO final in assay) was then added to the assay plate. Enzyme (10 ng/mL FAK, Invitrogen #PV3832) was added and the reaction was allowed to proceed at room temperature for 30 minutes. Detection of the phosphorylated product was performed by adding 100 μL/well of Eu—N1 labeled PY100 antibody (diluted 1:75000 in antibody dilution buffer). Samples were incubated at room temperature for 1 hour, followed by addition of 100 μL enhancement solution. Plates were agitated for 10 minutes and fluorescence of the resulting solution measured using the PerkinElmer EnVision™ 2102 (or 2104) multi-label plate reader.
as §1

Where [6] appears, read: average of two or more determinations, class symbols.

Structures can show the parent of a compound that is named as a salt. Where two headings read alike, the source gives them in different places.

T1 sequence (P06213 980-1382 limits assumed): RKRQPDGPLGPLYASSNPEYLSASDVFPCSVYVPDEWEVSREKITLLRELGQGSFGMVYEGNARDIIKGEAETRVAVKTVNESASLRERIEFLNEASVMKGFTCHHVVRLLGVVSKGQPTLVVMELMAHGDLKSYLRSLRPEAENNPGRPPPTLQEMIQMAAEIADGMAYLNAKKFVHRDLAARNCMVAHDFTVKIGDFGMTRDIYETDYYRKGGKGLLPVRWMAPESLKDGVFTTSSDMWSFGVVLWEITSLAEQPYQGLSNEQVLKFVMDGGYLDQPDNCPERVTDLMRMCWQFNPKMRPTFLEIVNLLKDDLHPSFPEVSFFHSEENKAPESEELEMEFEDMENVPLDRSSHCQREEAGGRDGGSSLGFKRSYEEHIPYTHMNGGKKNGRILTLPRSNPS

On to `COc1cc(N2CCN(C)CC2)c2cc1Nc1ncc(Cl)c(n1)Nc1cc(ccc1S(=O)(=O)C(C)C)/C=C\2`, for which the ring closure, yield of all isomers in series [1] (from C=Cc1ccc(S(=O)(=O)C(C)C)c(Nc2nc(Nc3cc(Br)c(N4CCN(C)CC4)cc3OC)ncc2Cl)c1, 31.3 mM, 0.25 h) amounted to 63%.
Regarding `COc1cc(C2CCN(C)CC2)c2cc1Nc1ncc(Cl)c(n1)Nc1cc(ccc1N(C)S(C)(=O)=O)CC2` [Example 8, 6-Chloro-10-(2-methanesulfonyl-methyl-amino)-17-(1-methyl-piperidin-4-yl)-19-methoxy-2,4,8,22-tetraazatetracyclo[14.3.1.1^3,7.1^9,13]docosa-1(20),3(22),4,6,9(21),10,12,16,18-nonaene Trifluoroacetate (1:1)], the IC50 (usually the concentration that gives 50% inhibition) in series [2] (setting [6]) is 101 to 1000 nM; in series [3], 101 to 1000 nM; in series [4] (setting [6]) it was under 10 nM; in series [5] (setting [6]) it was under 10 nM.
For the molecule `CN1CCN(c2ccc3cc2/C=C\c2ccc(N(C)S(C)(=O)=O)c(c2)Nc2nc(ncc2Cl)N3)CC1` [Example 9, (14Z)-6-Chloro-10-(2-methanesulfonyl-methyl-amino)-17-(4-methylpiperazin-1-yl)-2,4,8,22-tetraazatetracyclo[14.3.1.1^3,7.1^9,13]docosa-1(20),3(22),4,6,9(21),10,12,14,16,18-decaene Trifluoroacetate (1:1)], the IC50 is over 2000 nM in series [2] (given as numeric bound), under 10 nM in series [3], 10 to 100 nM in series [4] (setting [6]) and under 10 nM in series [5] (setting [6]). In addition, in series [1] (from C=Cc1cc(Nc2ncc(Cl)c(Nc3cc(Br)ccc3N(C)S(C)(=O)=O)n2)ccc1N1CCN(C)CC1, 65.0 mM, 2.75 h), the ring closure, yield of all isomers turned out to be 37%.
Consider `CN1CCN(c2ccc3cc2/C=C\c2ccc(S(C)(=O)=O)c(c2)Nc2nc(ncc2Cl)N3)CC1` [Example 18, (14Z)-6-Chloro-10-(methanesulfonyl)-17-(4-methylpiperazin-1-yl)-2,4,8,22-tetraazatetracyclo[14.3.1.1^3,7.1^9,13]docosa-1(20),3(22),4,6,9(21),10,12,14,16,18-decaene Trifluoroacetate (1:1)], for which the IC50 was in the range of 10 to 100 nM in series [3], 101 to 1000 nM in series [4] (setting [6]) and 10 to 100 nM in series [5] (setting [6]).
For `COc1ccc2cc1Nc1nc(ncc1Cl)Nc1ccc(N3CCOCC3)c(c1)CC2` [Example 21, 6-Chloro-10-methoxy-17-(morpholin-4-yl)-2,4,8,22-tetraazatetracyclo[14.3.1.1^3,7.1^9,13]docosa-1(20),3(22),4,6,9(21),10,12,16,18-nonaene Trifluoroacetate (1:1)], the IC50 was over 10000 nM in series [2] (setting [6]), under 10 nM in series [3], over 10000 nM in series [4] (setting [6]) and over 10000 nM in series [5] (setting [6]).
Consider `Clc1cnc2nc1Nc1cccc(c1)/C=C\c1cc(ccc1OCCN1CCCC1)N2` [Example 22, (14Z)-6-Chloro-17-[2-(pyrrolidin-1-yl)ethoxy]-2,4,8,22-tetraazatetracyclo[14.3.1.1^3,7.1^9,13]docosa-1(20),3(22),4,6,9(21),10,12,14,16,18-decaene], for which the IC50 was 1000 to 10000 nM in series [2] (setting [6]), under 10 nM in series [3], 101 to 1000 nM in series [4] (setting [6]) and 101 to 1000 nM in series [5] (setting [6]).
`Clc1cnc2nc1Nc1cccc(c1)/C=C\c1cc(ccc1N1CCOCC1)N2` [Example 24, (14Z)-6-Chloro-17-(morpholin-4-yl)-2,4,8,22-tetraazatetracyclo[14.3.1.1^3,7.1^9,13]docosa-1(20),3(22),4,6,9(21),10,12,14,16,18-decaene]: the concentration for half-maximal inhibition (IC50) in series [2] (setting [6]) is over 10000 nM; in series [3] it was under 10 nM; in series [4] (given as numeric bound), over 3000 nM; in series [5] (setting [6]) it was over 10000 nM.
On to `Clc1cnc2nc1Nc1cccc(c1)CCc1cc(ccc1N1CCOCC1)N2` [Example 25, 6-Chloro-17-(morpholin-4-yl)-2,4,8,22-tetraazatetracyclo[14.3.1.1^3,7.1^9,13]docosa-1(20),3(22),4,6,9(21),10,12,16,18-nonaene], for which the IC50 in series [2] (setting [6]) is over 10000 nM; in series [3] it was under 10 nM; in series [4] (setting [6]), over 10000 nM; in series [5] (setting [6]) it was over 10000 nM.
Take `O[C@@H]1c2cccc(c2)Nc2nc(ncc2Cl)Nc2cccc(c2)[C@@H]1O` [Example 26, (14R,15S)-6-chloro-2,4,8,22-tetraazatetracyclo[14.3.1.1^3,7.1^9,13]docosa-1(20),3(22),4,6,9(21),10,12,16,18-nonaene-14,15-diol]: the IC50 in series [2] (given as numeric bound) is over 3000 nM; in series [3], under 10 nM; in series [4] (setting [6]), 1000 to 10000 nM; in series [5] (given as numeric bound), over 1000 nM.
For `COc1cc(C2CCNCC2)c2cc1Nc1ncc(Cl)c(n1)Nc1cc(ccc1N(C)S(C)(=O)=O)CC2` [Example 28, 6-Chloro-10-(2-methanesulfonyl-methyl-amino)-17-(piperidin-4-yl)-19-methoxy-2,4,8,22-tetraazatetracyclo[14.3.1.1^3,7.1^9,13]docosa-1(20),3(22),4,6,9(21),10,12,16,18-nonaene Trifluoroacetate (1:1)], the IC50 in series [2] (setting [6]) was 101 to 1000 nM; in series [3] it was 10 to 100 nM; in series [4] (setting [6]) it was under 10 nM; in series [5] (setting [6]) it was under 10 nM.
For the molecule `COc1c2cc(c3c1CC[C@@H](N1CCOCC1)CC3)CCc1ccc(N(C)S(C)(=O)=O)c(c1)Nc1nc(ncc1Cl)N2` [Example 29, N-[(20S)-6-chloro-24-methoxy-20-(morpholin-4-yl)-2,4,8,27-tetraazapentacyclo[14.8.1.1^3,7.1^9,13.0^17,23]heptacosa-1(25),3(27),4,6,9(26),10,12,16,23-nonaen-10-yl]N-methylmethanesulfonamide], the IC50 is over 3000 nM in series [2] (given as numeric bound), 101 to 1000 nM in series [3], 10 to 100 nM in series [4] (setting [6]) and 10 to 100 nM in series [5] (setting [6]).
Regarding `FC(F)(F)c1cnc2nc1Nc1cccc(c1)CCc1cccc(c1)N2` [Example 30, 6-Trifluoromethyl-2,4,8,22-tetraazatetracyclo[14.3.1.1^3,7.1^9,13]docosa-1(20),3(22),4,6,9(21),10,12,16,18-nonaene Trifluoroacetate (1:1)], the IC50 in series [3] was 101 to 1000 nM; in series [4] (given as numeric bound), over 3000 nM; in series [5] (setting [6]) it was 1000 to 10000 nM.
